Consider one substance from patent publication US7807368B2, “Cyclin-dependent kinase inhibitors as targets for opiod growth factor treatment” (priority 2006, dated 2010).

Type in all cases: cell-based, human
Experiment [1] deals with CAL-27 cells. The experiment in a line: Growth curves of CAL-27 cells transfected with p16 siRNA. How it is done: The SCC-1 (UM-SCC-1) cell line was obtained from the University of Michigan Cancer Research Laboratory, and CAL-27 and SCC-4 cells were obtained from the American Type Culture Collection (Manassas, Va.). SCC-1 and CAL-27 cells were cultured in DMEM media, whereas SCC-4 cells were grown in 1:1 Hams F-12 DMEM media. All media was supplemented with 10% fetal bovine serum (HyClone, Logan, Utah), 1.2% sodium bicarbonate, and 5000 units/ml penicillin, 5 μg/ml streptomycin and 10 μg/ml neomycin. OGF was purchased from Sigma-Aldrich (St. Louis, Mo.), dissolved in sterile water, and used at a final concentration of 10^−6 M.
The p16-targeted siRNAs (antisense:5′ […]-3′; sense (SEQ ID NO:5): 5′ […]-3′(SEQ ID NO:6) were obtained as ready-annealed, purified duplex probes (Invitrogen, Carlsbad, Calif.). For transfection, 2×10^5 cells per well were seeded in 6-well plates containing 1 ml of serum-free media without antibiotics. In each well, 20 nM of p16-siRNA or control siRNA solutions in serum-free media were added. Cells were incubated for 4 h at 37° C. prior to the addition of OGF. Cultures were incubated for additional 20 h, and then 1 ml fresh complete media either lacking or containing OGF was added. At the indicated time points, cells were collected for growth curves or Western blotting. Three or more independent experiments were conducted. The control siRNAs were purchased from Ambion.

In experiment [2] the test system is Cdk2 kinase activity. Description: Immunoprecipitation and H1 kinase assay (Cdk2 kinase activity) in BxPC-3 cells. The protocol: (§1) To quantify expression levels or kinase activity, the optical density of each band was determined by densitometry and analyzed by QuickOne (Bio-Rad Laboratories). Each value was normalized to β-actin from the same blot. To report the changes due to OGF treatment, we calculated the fold increase by dividing the normalized value from the OGF treated samples by the normalized value of control samples at each time point; thus, increases due to OGF have values greater than one, and decreases due to OGF have values less than one. For all Western blot analyses, 3 or more independent experiments were performed.
To immunoprecipitate protein complexes, cell extracts were prepared as follows: 2×10^6 cells per sample were rinsed in cold PBS followed by lysis in 200 μl immunoprecipitation buffer (1% NP-40, 10 mM HEPES (pH 7.5), 200 mM NaCl, 5 mM EDTA, 50 mM NaF, 0.2 mM sodium orthovanidate, 1 mM phenylmethyl sulfonyl fluoride, 2 mM dithiothreitol), 1× Halt™ protease inhibitorcocktail (Pierce, Rockford, Ill.)). For each immunoprecipitation reaction mixture, a total of 500 μg of protein extract was used. To each sample, 50 μl of protein A beads (Santa Cruz Biotechnology) were added and incubated at 40° C. for 30 min with rotation. Beads were removed by centrifugation at 14000 rpm for 15 s. The lysates were then subjected to immunoprecipitation using 10 μl of polyclonal antibody against Cdk2 and incubated at 40° C. for 1.5 hours with rotation, followed by addition of 20 μl of protein A beads as the immune complex binding agent.
Samples were further incubated at 40 C for 1 hour with rotation. Beads were pelleted by centrifugation at 14000 rpm for 15 s, washed three times with 500 μl ice-cold immunoprecipitation wash buffer (1% NP-40, 50 mM HEPES, 150 mM NaCl, 1 mM EDTA, 1 mM dithiothreitol), and followed by two washes with ice-cold H1 kinase buffer (50 mM HEPES (pH 7.5), 10 mM MgCl2, 10 mM MnCl2, 1 mM dithiothreitol). Immunoprecipitates were incubated with 10 μCi γ^32P-ATP, and 1 μg of histone H1 (Roche) as the substrate for Cdk2. After incubation for 30 min at 30° C., with occasional mixing, the reaction was stopped by the addition of 2× sample loading buffer (Santa Cruz Biotechnology). Proteins were separated by a 12% SDS-PAGE gel, and the Cdk2 kinase activity pattern was visualized by autoradiography of phosphorylated H1.

Experiment [3] deals with p21. Description: Western blot of p21, p27 and Cdk2 in BxPC-3 cells. The protocol: Synchronized cells (2×10^6) from each treatment were solubilized in 200 μl RIPA buffer (1×PBS, 10 μM IGEPAL, 1 mg/ml SDS, 5 mg/ml deoxycholic acid), containing protease and phosphatase inhibitors (2 μg/ml aprotinin, 3 mg/ml phenylmethyl sulfonyl fluoride, 1 mM sodium orthovanidate, 1 μM okadaic acid). Total protein concentrations were measured using the DC protein assay kit (Bio-Rad Laboratories, Hercules, Calif.). Equal amounts of protein (40 μg) were subjected to 10% SDS-PAGE followed by transfer of proteins onto polyvinylidene difluoride (Millipore, Billerica, Mass.) using standard protocols.
The following antibodies were purchased from commercial sources: phospho-Rb (Ser795), phospho-Rb (Ser807/811) (Cell Signaling Technology, Beverly, Mass.); Cdk2, p57 (Santa Cruz Biotechnology, Santa Cruz, Calif.); p21, p27, total Rb (BD PharMingen, San Diego, Calif.); β-actin (Clone AC-15, Sigma-Aldrich).
Membranes were probed with secondary anti-rabbit or anti-mouse horseradish peroxidase-conjugated antibodies (GE Healthcare-Amersham Biosciences, Piscataway, N.J.), and developed using a chemiluminescence Western blotting detection system.
To determine equal loading of total protein samples, blots were re-probed with monoclonal antibody against β-actin at a dilution of 1:2000. If necessary, membranes were processed in stripping buffer (62.5 mM Tris-HCI and 100 mM β-mercaptoethanol/2% SDS, pH 6.7) at 50° C. before being re-probed.
as §1
The p21-targeted siRNAs were obtained from Santa Cruz Biotechnology, and negative control siRNAs were purchased from Ambion (Ambion, Inc., Austin, Tex.). For transfection, 2×10^5 cells per well were seeded in 6-well plates containing 1 ml of media without antibiotics. For each well, 1 μl of siRNA stock (20 μM) was mixed with 175 μl of serum-free media. Two μl of Oligofectamine reagent (Invitrogen, Carlsbad, Calif.) was added to prewashed cells in each well, making the final concentration for siRNA approximately 20 nM. Cells were incubated for 4 hours at 37° C. prior to the addition of OGF. Eighteen hours later, 1 ml fresh complete media with or without OGF was added to the cultures; media and OGF were replaced daily. At the indicated time points, cells were collected for growth curves or Western blotting.

Entries after “also recorded” stand apart in the source; their conditions may differ.

Consider [Met^5]-enkephalin [OGF], for which, in experiment [1], the “effect on growth of cells lacking p16” value was “no inhibitory effects”. Further, the “Cdk2 kinase activity vs control cells at each respective time point” value in experiment [2] (OGF for 15, 18 or 21 hours (FIG. 5)) was “significantly reduced”. Further, the “decrease in Cdk2 kinase activity compared to control” value in experiment [2] (OGF for 15 hours) is 78%; in experiment [2] (OGF for 18 hours), 46%; in experiment [2] (OGF for 21 hours) it was 82%. Moreover, the “expression of the cell cycle inhibitor p27” value in experiment [3] (OGF treatment) was “no significant effect”. Moreover, the “expression of Cdk2 protein” value in experiment [3] (following OGF exposure) is recorded as “did not change”. Further, the p21 expression entry in experiment [3] (synchronized BxPC-3 cells, 9 hours, 10^-6 M OGF, 10^-5 M naloxone) was “significantly upregulated; also recorded: significantly elevated”.
